In brackets after ≈: the same amount, converted by molar mass. Where two headings read alike, the source gives them in different places. *1 amine or outer side, *2 acyl side, *3 side chain or, on linkers, in order; H or OH if unused. Where a SMILES comes first, the peptide text is derived from it. [ ]: non-standard residue; d: D form. X1 = CCC(C)CCCCCCCCCC[C@H](CC(=O)[*:2])N[*:1]; X2 = CC(C)CCCCCCCCCCC[C@H](CC(=O)[*:2])N[*:1]; Hyp = O=C(O)[C@@H]1C[C@@H](O)CN1
What was measured:
[1] = system: Candida albicans KCTC 7678; experiment: Antifungal assay (MIC), Candida albicans; assay type: cell-based; conditions: for MIC: Candida albicans, potato dextrose broth, 10^5 spores/mL, 28 °C, 48 h, lowest concentration preventing visible growth; for Antifungal activity compared with 3 and 4: C. albicans, from MIC
Protocol: (§1) The following microorganisms were used as test strains in the assay; Aspergillus flavus KCTC 6984, Neurospora crassa KCTC 6079, Candida tropicalis KCTC 7830, Candida albicans KCTC 7678, Fusarium oxysporum f. sp. cucumerinum KCTC 6084, Alternaria brassicicola ATCC 96836 and Penicillium griseofulvum KCTC 6435. Potato dextrose broth (Difco Laboratories) was used for a test medium. For C. albicans and C. tropicalis, 100 μL of inoculum suspension of 10^5 spores/mL was plated into 96-well plates containing diluted test compounds, and the plates were incubated at 28 °C for 48 h. For A. flavus, N. crassa, F. oxysporum, A. brassicicola and P. griseofulvum, 100 μL of cell suspension containing 2% of overnight cultures in 96-well were incubated at 28 °C for 72 h. The MIC values were determined as the lowest concentration of each compound that prevented visible growth.

[2] = system: Neurospora crassa KCTC 6079; experiment: Antifungal assay (MIC), Neurospora crassa; assay type: cell-based; conditions: for MIC: Neurospora crassa, potato dextrose broth, 2% of overnight cultures, 28 °C, 72 h, lowest concentration preventing visible growth; for Antifungal activity compared with 3 and 4: N. crassa, from MIC
Protocol: as §1

[3] = system: Aspergillus flavus KCTC 6984; experiment: Antifungal assay (MIC), Aspergillus flavus; assay type: cell-based; conditions: for MIC: Aspergillus flavus, potato dextrose broth, 2% of overnight cultures, 28 °C, 72 h, lowest concentration preventing visible growth; for Antifungal activity compared with 3 and 4: A. flavus, from MIC
Protocol: as §1

[4] = system: Alternaria brassicicola ATCC 96836; experiment: Antifungal assay (MIC), Alternaria brassicicola; assay type: cell-based; conditions: 2% of overnight cultures, 28 °C, 72 h, lowest concentration preventing visible growth
Protocol: as §1

[5] = system: Penicillium griseofulvum KCTC 6435; experiment: Antifungal assay (MIC), Penicillium griseofulvum; assay type: cell-based; conditions: for MIC: Penicillium griseofulvum, potato dextrose broth, 2% of overnight cultures, 28 °C, 72 h, lowest concentration preventing visible growth; for Antifungal activity compared with 3 and 4: P. griseofulvum, from MIC
Protocol: as §1

[6] = system: Fusarium oxysporum f. sp. cucumerinum KCTC 6084; experiment: Antifungal assay (MIC), Fusarium oxysporum; assay type: cell-based
Protocol: as §1

[7] = system: Candida tropicalis KCTC 7830; experiment: Antifungal assay (MIC), Candida tropicalis; assay type: cell-based; conditions: 10^5 spores/mL, 28 °C, 48 h, lowest concentration preventing visible growth
Protocol: as §1

[8] = Cytotoxicity assay, src^ts-NRK; assay type: cell-based; conditions: rat, src^ts-NRK cells, MEM + 10% calf serum, 32 °C (permissive temperature), WST-8, absorbance 450 nm, read-out: Cytotoxic activity, IC50
Protocol: (§2) The human cervix epidermoid carcinoma cell line HeLa was cultured at 37 °C in DMEM (Invitrogen/Life Technologies, Carlsbad, CA, USA), supplemented with 10% fetal bovine serum (Sigma-Aldrich, St. Louis, MO, USA). src^ts-NRK cells, rat kidney cells that were infected with ts25, a T-class mutant of Rous sarcoma virus Prague strain, were cultured at permissive temperature (32 °C) in MEM (Sigma-Aldrich), supplemented with 10% calf serum (PAA Laboratories, Pashing, Austria). Each cell line was seeded into a 96-well plate (HeLa, 4 × 10^3 cells/well; src^ts-NRK, 1 × 10^4 cells/well) and then exposed to test compounds. After 48 h incubation, cell proliferation was determined using a Cell Count Reagent SF (Nacalai Tesque). Briefly, a 1/10 volume of WST-8 solution was added to each well, and the plates were incubated at 37 °C for 1 h. Then, the absorbance at 450 nm was measured in a microplate reader.

Cytotoxicity assay, HeLa = assay type: cell-based; conditions: human, HeLa cells, DMEM + 10% fetal bovine serum, 37 °C, WST-8, absorbance 450 nm, read-out: Cytotoxic activity, IC50
Protocol: as §2

human recombinant IDO = target: T1, human recombinant IDO (Homo sapiens, UniProt P14902); experiment: Indoleamine 2,3-dioxygenase (IDO) inhibition assay; assay type: biochemical
T1 construct: made in house; host or cells: E. coli
Protocol: The enzymatic inhibition assay was performed with human recombinant IDO expressed in E. coli according to previously described method with some modifications. The reaction mixture (200 μL) contained 50 mM potassium phosphate buffer (pH 6.5), 20 mM ascorbic acid, 10 μM methylene blue, 200 μM L-Trp, 20 μg/mL catalase and a sample in 2 μL of DMSO. The samples were serially diluted […] from 50 to 0.1 μM. The reaction was started by the addition of IDO and continued at 37 °C for 60 min. After termination of the reaction by addition of 40 μL of 30% (w/v) trichloroacetic acid, the resulting mixtures were incubated at 60 °C for 15 min, followed by centrifugation at 2000 × g for 15 min. Finally, 125 μL of supernatant is added to 125 μL of p-dimethylaminobenzaldehyde (pDMAB) (2%, v/v) in acetic acid, and the absorbance at 480 nm was measured.

MCF-7 = system: MCF-7; parameters: method as in PMID 25974307; conditions: MCF-7 breast cancer cells; cited from earlier work
MDA-MB-231 = system: MDA-MB-231; parameters: method as in PMID 25974307; conditions: MDA-MB-231 breast cancer cells; cited from earlier work
Akt signaling network = system: Akt signaling network; parameters: method as in PMID 25974307; conditions: MDA-MB-231 and MCF-7 breast cancer cells; cited from earlier work
[9] = potato dextrose broth, 2% of overnight cultures, 28 °C, 72 h, lowest concentration preventing visible growth

T1 sequence (P14902 whole entry): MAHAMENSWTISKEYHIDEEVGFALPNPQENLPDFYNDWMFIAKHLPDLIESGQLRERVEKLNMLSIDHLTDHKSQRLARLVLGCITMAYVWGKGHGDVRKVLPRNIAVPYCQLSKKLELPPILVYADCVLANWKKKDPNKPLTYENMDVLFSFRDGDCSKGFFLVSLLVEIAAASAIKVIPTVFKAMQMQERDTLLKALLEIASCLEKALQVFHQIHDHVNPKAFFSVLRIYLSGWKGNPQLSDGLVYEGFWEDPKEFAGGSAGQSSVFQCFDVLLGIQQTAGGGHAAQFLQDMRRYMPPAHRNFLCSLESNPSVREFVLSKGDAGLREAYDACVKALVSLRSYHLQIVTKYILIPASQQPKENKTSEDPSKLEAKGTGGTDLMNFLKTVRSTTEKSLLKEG

| Compound | MIC [1] [µg/mL] | IC50 at 48 h [8] [µM] | MIC [2] [µg/mL] | MIC [3] [µg/mL] | IC50 at 48 h (Cytotoxicity assay, HeLa) [µM] | MIC ([4]; potato dextrose broth) [µg/mL] | MIC [5] [µg/mL] | MIC [6, 9] [µg/mL] | MIC ([7]; potato dextrose broth) [µg/mL] | also measured |
| --- | --- | --- | --- | --- | --- | --- | --- | --- | --- | --- |
| C[C@@H]1[C@H](O)[C@@H](C)/C=C/C=C/C=C/C=C/C=C/C=C/C=C/[C@H](O[C@@H]2O[C@H](C)[C@@H](O)[C@H](N)[C@@H]2O)C[C@@H]2O[C@](O)(C[C@@H](O)C[C@@H](O)[C@H](O)CC[C@@H](O)C[C@@H](O)CC(=O)O[C@H]1C)C[C@H](O)[C@H]2C(=O)O [Amphotericin B, reference compound] | – | – | – | – | – | – | – | – | – | MIC ([1]; KCTC7678, read-out: MIC): 0.098 µg/mL (≈ 0.106 µM); MIC ([2]; KCTC6079, read-out: MIC): 0.098 µg/mL (≈ 0.106 µM); MIC ([3]; KCTC6984, read-out: MIC): 0.195 µg/mL (≈ 0.211 µM); MIC ([4]; ATCC96836, potato dextrose broth, read-out: MIC): 0.391 µg/mL (≈ 0.423 µM); MIC ([5]; KCTC6435, read-out: MIC): 3.12 µg/mL (≈ 3.38 µM); MIC ([6]; KCTC6084, 72 h): 12.5 µg/mL (≈ 13.5 µM); MIC ([7]; KCTC7830, potato dextrose broth, read-out: MIC): 0.781 µg/mL (≈ 0.845 µM) |
| CC(C)CCCCCCCCCCC[C@@H]1CC(=O)N[C@@H](CC(N)=O)C(=O)N[C@H](Cc2ccc(O)cc2)C(=O)N[C@H](CC(N)=O)C(=O)N[C@@H](CCC(N)=O)C(=O)N2C[C@H](O)C[C@H]2C(=O)N[C@H](CC(N)=O)C(=O)N[C@@H](CO)C(=O)N1 [Compound 1, Iturin F1] (cyclo(N[dY][dN]Q[Hyp][dN]S[X2])) | 6.25 (≈ 5.68 µM) | 8.9 | 6.25 (≈ 5.68 µM) | 3.125 (≈ 2.84 µM) | 8.9 | 25 (≈ 22.7 µM) | 3.125 (≈ 2.84 µM) | 25 (≈ 22.7 µM) | 6.25 (≈ 5.68 µM) | Antifungal activity compared with 3 and 4 [1]: better activities than 3 and 4; Antifungal activity compared with 3 and 4 [2]: better activities than 3 and 4; Antifungal activity compared with 3 and 4 [3]: better activities than 3 and 4; Antifungal activity compared with 3 and 4 [5]: better activities than 3 and 4 |
| CCC(C)CCCCCCCCCC[C@@H]1CC(=O)N[C@@H](CC(N)=O)C(=O)N[C@H](Cc2ccc(O)cc2)C(=O)N[C@H](CC(N)=O)C(=O)N[C@@H](CCC(N)=O)C(=O)N2C[C@H](O)C[C@H]2C(=O)N[C@H](CC(N)=O)C(=O)N[C@@H](CO)C(=O)N1 (stereo partly drawn) [Compound 2, Iturin F2] (cyclo(N[dY][dN]Q[Hyp][dN]S[X1])) | 6.25 (≈ 5.68 µM) | 7.4 | 6.25 (≈ 5.68 µM) | 3.125 (≈ 2.84 µM) | 7.8 | 25 (≈ 22.7 µM) | 3.125 (≈ 2.84 µM) | 25 (≈ 22.7 µM) | 6.25 (≈ 5.68 µM) | Antifungal activity compared with 3 and 4 [1]: better activities than 3 and 4; Antifungal activity compared with 3 and 4 [2]: better activities than 3 and 4; Antifungal activity compared with 3 and 4 [3]: better activities than 3 and 4; Antifungal activity compared with 3 and 4 [5]: better activities than 3 and 4 |
| CC(C)CCCCCCCCCCC[C@@H]1CC(=O)N[C@@H](CC(N)=O)C(=O)N[C@H](Cc2ccc(O)cc2)C(=O)N[C@H](CC(N)=O)C(=O)N[C@@H](CCC(N)=O)C(=O)N2CCC[C@H]2C(=O)N[C@H](CC(N)=O)C(=O)N[C@@H](CO)C(=O)N1 [Compound 3, Iturin A9] (cyclo(N[dY][dN]QP[dN]S[X2])) | 12.5 (≈ 11.5 µM) | 5.2 | 12.5 (≈ 11.5 µM) | 25 (≈ 23 µM) | 4.6 | 25 (≈ 23 µM) | 6.25 (≈ 5.76 µM) | 25 (≈ 23 µM) | 6.25 (≈ 5.76 µM) | – |
| CCC(C)CCCCCCCCCC[C@@H]1CC(=O)N[C@@H](CC(N)=O)C(=O)N[C@H](Cc2ccc(O)cc2)C(=O)N[C@H](CC(N)=O)C(=O)N[C@@H](CCC(N)=O)C(=O)N2CCC[C@H]2C(=O)N[C@H](CC(N)=O)C(=O)N[C@@H](CO)C(=O)N1 (stereo partly drawn) [Compound 4, Iturin A8] (cyclo(N[dY][dN]QP[dN]S[X1])) | 12.5 (≈ 11.5 µM) | 9 | 12.5 (≈ 11.5 µM) | 12.5 (≈ 11.5 µM) | 5.6 | 25 (≈ 23 µM) | 6.25 (≈ 5.76 µM) | 25 (≈ 23 µM) | 6.25 (≈ 5.76 µM) | IC50 (human recombinant IDO; human recombinant IDO expressed in E. coli, 50 mM potassium phosphate pH 6.5, 200 μM L-Trp, 37 °C, 60 min, pDMAB, absorbance 480 nm, read-out: IDO inhibition, IC50): 5.5 µM; IDO inhibitory activity (in words) (human recombinant IDO; human recombinant IDO, pH 6.5, 200 μM L-Trp, 37 °C, 60 min, samples 0.1 to 50 μM): significant inhibitory activity |
| CC1=CC(=O)c2ccccc2C1=O [menadione, reference compound] | – | – | – | – | – | – | – | – | – | IC50 (human recombinant IDO): 0.64 µM |
| iturin A | – | – | – | – | – | – | – | – | – | Inhibition of proliferation (MCF-7): inhibits the proliferation; Inhibition of proliferation (MDA-MB-231): inhibits the proliferation; Inhibition of Akt signaling network (Akt signaling network): inhibiting the Akt signaling network |

Source: paper PMC4849076, “New Cyclic Lipopeptides of the Iturin Class Produced by Saltern-Derived Bacillus sp. KCB14S006” (Marine Drugs, 2016)
